Tested on: cotton, variety D&PL 555
Test: Cotton yield
Type: in vivo
Conditions: 5 replicates
Method: The trial was performed on cotton, variety D&PL 555. The formulated test compounds were diluted to the appropriate concentrations with water to which a crop oil concentrate (1% to 2% v/v) or a non-ionic surfactant (0.25% v/v) was added. The application of the test composition as a cotton plant growth regulator was performed using pressurized, over-the-top spray equipment consisting of a research scale boom sprayer. Deposit of the test composition was primarily to the top of the cotton plants, minimizing spray deposition to lower branches, leaves and fruit. The finished spray volume was 10 gallons per acre, with sprayer nozzle design, orientation and nozzle pressures chosen to prevent spray drift. Applications were made at first sign of cotton boll opening and at 15%, 20% and 40% open bolls.
The experimental design used randomized plots with 1 to 4 treatment rates of test composition and from 1 to 10 replications depending on the test (sees tables below). The size of each experimental plot was about 15 m^2. Testing was performed in Texas, North Carolina, Mississippi and Georgia.
The results, shown as the mean of the indicated number of replications, were compared with results observed in the same trials with an untreated control.

Compound `CCOC(=O)C(Cl)Cc1cc(-n2nc(C)n(C(F)F)c2=O)c(F)cc1Cl` (centres unmarked) [carfentrazone-ethyl, ethyl 2-chloro-3-[2-chloro-5-(4-difluoromethyl-3-methyl-5-oxo-4,5-dihydro-[1,2,4]-triazol-1-yl)-4-fluorophenyl]propionate] has a Cotton yield (20% open bolls application, 0.002 lb ai/a) of 1168 Lb lint/Acre, a Cotton yield (20% open bolls application, 0.004 lb ai/a) of 1128 Lb lint/Acre and a Cotton yield (20% open bolls application, 0.006 lb ai/a) of 1107 Lb lint/Acre. For the same compound, the Cotton yield (20% open bolls application, 0.008 lb ai/a) was 1178 Lb lint/Acre, the Cotton yield (first open boll application, 0.002 lb ai/a) was 1172 Lb lint/Acre and the Cotton yield (first open boll application, 0.004 lb ai/a) was 1004 Lb lint/Acre. The Cotton yield (first open boll application, 0.006 lb ai/a) was 1152 Lb lint/Acre and the Cotton yield (first open boll application, 0.008 lb ai/a) was 1167 Lb lint/Acre.
